Where a name gives a salt, the structure may show the parent alone.
Assays:
human Cat S = human Cat S (Homo sapiens (Human), UniProt P25774); assay: Cathepsin enzyme inhibition assay (human Cat S); type: biochemical; conditions: enzyme 1 nM, substrate Z-Val-Val-Arg-AMC 20 μM
Procedure: (§1) Cathepsin Enzyme Inhibition Assay
(§2) Enzyme activity is measured by observing the increase in fluorescence intensity caused by cleavage of a peptide substrate containing a fluorophore whose emission is quenched in the intact peptide.
(§3) Assay buffer: 100 mM potassium phosphate pH 6.5, EDTA-Na 5 mM, Triton X-100 0.001%, DTT 5 mM.
(§4) Enzymes (all at 1 nM): human and mouse Cathepsin S, Cat K, Cat B, Cat L.
(§5) Substrate (20 μM): Z-Val-Val-Arg-AMC, except for Cat K which uses Z-Leu-Arg-AMC (both from Bachem).
Enzyme is added to the substance dilutions in 96-well microtitre plates and the reaction is started with substrate. […] IC50 are calculated by standard methods.
Inhibition of human Cat S, mouse Cat S, human Cat K, human Cat B, human Cat L and mouse Cat L have been measured separately.

human Cat L = human Cat L (Homo sapiens (Human), UniProt P07711); assay: Cathepsin enzyme inhibition assay (human Cat L); type: biochemical; conditions: enzyme 1 nM, substrate Z-Val-Val-Arg-AMC 20 μM
Procedure: as §1, §2, §3, §4, §5
Excitation 360 nm, Emission 465 nm.
Enzyme is added to the substance dilutions in 96-well microtitre plates and the reaction is started with substrate. Fluorescence emission is measured over 20 minutes, during which time a linear increase is observed in the absence of inhibitor. IC50 are calculated by standard methods.
Inhibition of human Cat S, mouse Cat S, human Cat K, human Cat B, human Cat L and mouse Cat L have been measured separately. The results obtained for human Cat S and L for representative compounds of the invention are expressed in the following table in μM.

Chain of human Cat L (P07711 114-333): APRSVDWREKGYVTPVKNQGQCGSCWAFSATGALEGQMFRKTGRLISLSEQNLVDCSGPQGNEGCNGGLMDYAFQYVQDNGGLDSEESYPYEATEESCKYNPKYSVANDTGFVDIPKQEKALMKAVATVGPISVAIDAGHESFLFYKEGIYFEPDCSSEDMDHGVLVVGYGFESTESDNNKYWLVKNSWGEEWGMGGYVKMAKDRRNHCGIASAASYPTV
Chain of human Cat S (P25774 115-331): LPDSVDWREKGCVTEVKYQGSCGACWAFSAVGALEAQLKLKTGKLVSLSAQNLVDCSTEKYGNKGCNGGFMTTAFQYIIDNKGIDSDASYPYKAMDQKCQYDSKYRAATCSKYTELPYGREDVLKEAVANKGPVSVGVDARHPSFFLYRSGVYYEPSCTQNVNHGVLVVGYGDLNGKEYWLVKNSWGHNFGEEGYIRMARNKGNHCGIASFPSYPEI

Row | IC50 (human Cat S; pH 6.5) [nM] | IC50 (human Cat L; pH 6.5) [nM] | IC50 (human Cat S; pH 6.5, hydrochloride) [nM] | IC50 (human Cat L; pH 6.5, hydrochloride) [nM] | Compound
1 | 2.92 | 78.2 |  |  | N#CC1(NC(=O)[C@@H]2C[C@@H](S(=O)(=O)c3ccc(OCC(F)(F)F)cc3Cl)CN2C(=O)C2(c3ncc(Cl)cc3F)CNC2)CC1 [Example 20, (2S,4R)-1-(3-(5-Chloro-3-fluoropyridin-2-yl)azetidine-3-carbonyl)-4-(2-chloro-4-(2,2,2-trifluoroethoxy)phenylsulfonyl)-N-(1-cyanocyclopropyl)pyrrolidine-2-carboxamide]
2 | 1.04 | 1340 |  |  | CC(C)(C)OC(=O)N1CCC1(C(=O)N1C[C@H](S(=O)(=O)c2ccc(F)cc2Cl)C[C@H]1C(=O)NC1(C#N)CC1)c1ncc(Cl)cc1F (stereo partly drawn) [Example 21, 2-[(2S,4R)-4-(2-Chloro-4-fluoro-benzenesulfonyl)-2-(1-cyano-cyclopropylcarbamoyl)-pyrrolidine-1-carbonyl]-2-(5-chloro-3-fluoro-pyridin-2-yl)-azetidine-1-carboxylic acid tert-butyl ester]
3 | 1.26 | 1020 |  |  | CC(C)(C)OC(=O)N1CCC1(C(=O)N1C[C@H](S(=O)(=O)c2ccc(F)cc2Cl)C[C@H]1C(=O)NC1(C#N)CC1)c1ncc(Br)cc1F (stereo partly drawn) [Example 22, 2-(5-Bromo-3-fluoro-pyridin-2-yl)-2-[(2S,4R)-4-(2-chloro-4-fluoro-benzenesulfonyl)-2-(1-cyano-cyclopropylcarbamoyl)-pyrrolidine-1-carbonyl]-azetidine-1-carboxylic acid tert-butyl ester]
4 | 0.377 | 2010 |  |  | CC(C)(C)OC(=O)N1CCC1(C(=O)N1C[C@H](S(=O)(=O)c2ccc(F)cc2Cl)C[C@H]1C(=O)NC1(C#N)CC1)c1ncc(Cl)cc1F (stereo partly drawn) [Example 23, 2-[(2S,4R)-4-(2-Chloro-4-fluoro-benzenesulfonyl)-2-(1-cyano-cyclopropylcarbamoyl)-pyrrolidine-1-carbonyl]-2-(5-chloro-3-fluoro-pyridin-2-yl)-azetidine-1-carboxylic acid tert-butyl ester]
5 | 4.56 | 922 |  |  | CC(C)(C)OC(=O)N1CCC1(C(=O)N1C[C@H](S(=O)(=O)c2ccc(F)cc2Cl)C[C@H]1C(=O)NC1(C#N)CC1)c1ncc(Cl)cc1F (stereo partly drawn) [Example 24, 2-[(2S,4R)-4-(2-Chloro-4-fluoro-benzenesulfonyl)-2-(1-cyano-cyclopropylcarbamoyl)-pyrrolidine-1-carbonyl]-2-(5-chloro-3-fluoro-pyridin-2-yl)-azetidine-1-carboxylic acid tert-butyl ester]
6 | 0.492 | 2910 |  |  | CC(C)(C)OC(=O)N1CCC1(C(=O)N1C[C@H](S(=O)(=O)c2ccc(F)cc2Cl)C[C@H]1C(=O)NC1(C#N)CC1)c1ncc(Br)cc1F (stereo partly drawn) [Example 25, 2-(5-Bromo-3-fluoro-pyridin-2-yl)-2-[(2S,4R)-4-(2-chloro-4-fluoro-benzenesulfonyl)-2-(1-cyano-cyclopropylcarbamoyl)-pyrrolidine-1-carbonyl]-azetidine-1-carboxylic acid tert-butyl ester]
7 | 4.45 | 471 |  |  | CC(C)(C)OC(=O)N1CCC1(C(=O)N1C[C@H](S(=O)(=O)c2ccc(F)cc2Cl)C[C@H]1C(=O)NC1(C#N)CC1)c1ncc(Br)cc1F (stereo partly drawn) [Example 26, 2-(5-Bromo-3-fluoro-pyridin-2-yl)-2-[(2S,4R)-4-(2-chloro-4-fluoro-benzenesulfonyl)-2-(1-cyano-cyclopropylcarbamoyl)-pyrrolidine-1-carbonyl]-azetidine-1-carboxylic acid tert-butyl ester]
8 | 2.22 | 1060 |  |  | C[C@H](Oc1ccc(S(=O)(=O)[C@@H]2C[C@@H](C(=O)NC3(C#N)CC3)N(C(=O)C3(c4ncc(Br)cc4F)CCN3C(=O)OC(C)(C)C)C2)c(Cl)c1)C(F)(F)F (stereo partly drawn) [Example 30, 2-(5-Bromo-3-fluoro-pyridin-2-yl)-2-[(2S,4R)-4-[2-chloro-4-((S)-2,2,2-trifluoro-1-methyl-ethoxy)-benzenesulfonyl]-2-(1-cyano-cyclopropylcarbamoyl)-pyrrolidine-1-carbonyl]-azetidine-1-carboxylic acid tert-butyl ester]
9 |  |  | 1.57 | 81.6 | N#CC1(NC(=O)[C@@H]2C[C@@H](S(=O)(=O)c3ccc(F)cc3Cl)CN2C(=O)C2(c3ncc(Cl)cc3F)CCN2)CC1 (stereo partly drawn) [Example 31, (2S,4R)-4-(2-Chloro-4-fluoro-benzenesulfonyl)-1-[2-(5-chloro-3-fluoro-pyridin-2-yl)-azetidine-2-carbonyl]-pyrrolidine-2-carboxylic acid (1-cyano-cyclopropyl)-amide; hydrochloride]
10 | 3.54 | 89.5 |  |  | C[C@H](Oc1ccc(S(=O)(=O)[C@@H]2C[C@@H](C(=O)NC3(C#N)CC3)N(C(=O)C3(c4ncc(Br)cc4F)CN(C(=O)OC(C)(C)C)C3)C2)c(Cl)c1)C(F)(F)F [Example 33, 3-(5-Bromo-3-fluoro-pyridin-2-yl)-3-[(2S,4R)-4-[2-chloro-4-((S)-2,2,2-trifluoro-1-methyl-ethoxy)-benzenesulfonyl]-2-(1-cyano-cyclopropylcarbamoyl)-pyrrolidine-1-carbonyl]-azetidine-1-carboxylic acid tert-butyl ester]
11 | 3.48 | 14.2 |  |  | C[C@H](Oc1ccc(S(=O)(=O)[C@@H]2C[C@@H](C(=O)NC3(C#N)CC3)N(C(=O)C3(c4ncc(Br)cc4F)CNC3)C2)c(Cl)c1)C(F)(F)F [Example 34, (2S,4R)-1-[3-(5-Bromo-3-fluoro-pyridin-2-yl)-azetidine-3-carbonyl]-4-[2-chloro-4-((S)-2,2,2-trifluoro-1-methyl-ethoxy)-benzenesulfonyl]-pyrrolidine-2-carboxylic acid (1-cyano-cyclopropyl)-amide]
12 |  |  | 1.3 | 1440 | N#CC1(NC(=O)[C@@H]2C[C@@H](S(=O)(=O)c3ccc(F)cc3Cl)CN2C(=O)C2(c3ncc(Cl)cc3F)CCN2)CC1 (stereo partly drawn) [Example 35, (2S,4R)-4-(2-Chloro-4-fluoro-benzenesulfonyl)-1-[2-(5-chloro-3-fluoro-pyridin-2-yl)-azetidine-2-carbonyl]-pyrrolidine-2-carboxylic acid (1-cyano-cyclopropyl)-amide hydrochloride]
13 | 1.42 | 621 |  |  | N#CC1(NC(=O)[C@@H]2C[C@@H](S(=O)(=O)c3ccc(F)cc3Cl)CN2C(=O)C2(c3ncc(Br)cc3F)CCN2)CC1 (stereo partly drawn) [Example 36, (2S,4R)-1-[2-(5-Bromo-3-fluoro-pyridin-2-yl)-azetidine-2-carbonyl]-4-(2-chloro-4-fluoro-benzenesulfonyl)-pyrrolidine-2-carboxylic acid (1-cyano-cyclopropyl)-amide hydrochloride]
14 |  |  | 3.83 | 58.5 | C[C@H](Oc1ccc(S(=O)(=O)[C@@H]2C[C@@H](C(=O)NC3(C#N)CC3)N(C(=O)C3(c4ncc(Cl)cc4F)CCN3)C2)c(Cl)c1)C(F)(F)F (stereo partly drawn) [Example 37, (2S,4R)-1-[2-(5-Chloro-3-fluoro-pyridin-2-yl)-azetidine-2-carbonyl]-4-[2-chloro-4-((S)-2,2,2-trifluoro-1-methyl-ethoxy)-benzenesulfonyl]-pyrrolidine-2-carboxylic acid (1-cyano-cyclopropyl)-amide hydrochloride]
15 |  |  | 4.16 | 317 | C[C@H](Oc1ccc(S(=O)(=O)[C@@H]2C[C@@H](C(=O)NC3(C#N)CC3)N(C(=O)C3(c4ncc(Cl)cc4F)CCN3)C2)c(Cl)c1)C(F)(F)F (stereo partly drawn) [Example 38, (2S,4R)-1-[2-(5-Chloro-3-fluoro-pyridin-2-yl)-azetidine-2-carbonyl]-4-[2-chloro-4-((S)-2,2,2-trifluoro-1-methyl-ethoxy)-benzenesulfonyl]-pyrrolidine-2-carboxylic acid (1-cyano-cyclopropyl)-amide hydrochloride]
16 | 5.46 | 26.9 |  |  | C[C@H](Oc1ccc(S(=O)(=O)[C@@H]2C[C@@H](C(=O)NC3(C#N)CC3)N(C(=O)C3(c4ncc(Br)cc4F)CCN3)C2)c(Cl)c1)C(F)(F)F (stereo partly drawn) [Example 39, (2S,4R)-1-[2-(5-Bromo-3-fluoro-pyridin-2-yl)-azetidine-2-carbonyl]-4-[2-chloro-4-((S)-2,2,2-trifluoro-1-methyl-ethoxy)-benzenesulfonyl]-pyrrolidine-2-carboxylic acid (1-cyano-cyclopropyl)-amide hydrochloride]
17 | 4.6 | 662 |  |  | Cc1cc(-c2ccc(S(=O)(=O)[C@@H]3C[C@@H](C(=O)NC4(C#N)CC4)N(C(=O)C4(c5ncc(Br)cc5F)CCN4C(=O)OC(C)(C)C)C3)c(Cl)c2)ccn1 (stereo partly drawn) [Example 42, 2-(5-Bromo-3-fluoro-pyridin-2-yl)-2-[(2S,4R)-4-[2-chloro-4-(2-methyl-pyridin-4-yl)-benzenesulfonyl]-2-(1-cyano-cyclopropylcarbamoyl)-pyrrolidine-1-carbonyl]-azetidine-1-carboxylic acid tert-butyl ester]
18 | 2.33 | 86.6 |  |  | Cc1cc(-c2ccc(S(=O)(=O)[C@@H]3C[C@@H](C(=O)NC4(C#N)CC4)N(C(=O)C4(c5ncc(Cl)cc5F)CCN4)C3)c(Cl)c2)ccn1 (stereo partly drawn) [Example 43, (2S,4R)-1-[2-(5-Chloro-3-fluoro-pyridin-2-yl)-azetidine-2-carbonyl]-4-[2-chloro-4-(2-methyl-pyridin-4-yl)-benzenesulfonyl]-pyrrolidine-2-carboxylic acid (1-cyano-cyclopropyl)-amide hydrochloride]
